{
  "source": "paper PMC13427755",
  "about": "(Nature Communications, 2026)",
  "origin": "cited, not measured here",
  "test_system": "Healthy Adult Subjects",
  "details": "cited from earlier work",
  "experimental": "Pivotal 28-day Good Laboratory Practice (GLP) toxicity studies were performed in rats and dogs. These studies were designed such that the high dose levels would achieve at least a 50-fold margin over the proposed high clinical dose as recommended in International Council for Harmonisation (ICH)-M3(R2) guidelines. […] These events were considered to be dose limiting and related to LTI-03. There was no evidence that the TEAEs in the 3 subjects described previously were secondary to an allergic response. In the 20 mg QD MAD cohorts there were mild decreases in FEV1 in two subjects that were not associated with TEAEs. These were not considered to be dose limiting. There were no serious adverse events (SAEs). All TEAEs were resolved 7 days after the treatment period. Further details can be ...",
  "note": "Where a SMILES comes first, the peptide text is derived from it.",
  "data": [
    {"smiles": "CC(C)[C@H](NC(=O)[C@@H](NC(=O)[C@H](Cc1ccccc1)NC(=O)[C@@H](NC(=O)[C@@H](NC(=O)[C@@H](N)Cc1ccccc1)[C@@H](C)O)[C@@H](C)O)[C@@H](C)O)C(=O)N[C@H](C(=O)O)[C@@H](C)O", "note": "[LTI-03] (H-FTTFTVT-OH; N-terminus and C-terminus assumed)", "values": [
      {"measurement": "tolerability, 3 lower dose MAD cohorts", "setting": "healthy adults, 2.5 mg QD, 5 mg QD, 5 mg BID inhaled for up to 14 days, ref study LTI-03-1001", "value": "well tolerated"},
      {"measurement": "TEAEs secondary to pulmonary airflow limitation, 40 mg QD MAD cohort", "setting": "in vivo", "value": "dose limiting"}
    ]}
  ]
}
